For 19 compounds, GI50 results are on record in US11753397B2, “Cereblon binders for the degradation of ikaros” (C4 Therapeutics, Inc., priority 2018, dated 2023).

Some results are limits rather than exact numbers.

This assay deals with NCIH929.1 cells. Briefly: Cell viability assay (CellTiter-Glo 2.0, ATP quantification). The format is cell-based. The note with it: NCIH929.1 cell viability, CellTiter-Glo 2.0, 96 hr incubation, top concentration 1 μM. An outline of the steps:
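Cells seeded at 750/well in RPMI with 10% FBS and 0.05 mM 2-mercaptoethanol, exposed 96 h at 37 °C to 10-point half-log dilutions in duplicate, top 1 μM. Viability by CellTiter-Glo 2.0 ATP luminescence, with a day-0 read as cytostatic baseline (CT0).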
On the technique in general: Cellular ATP, detected with luciferase, serves as a proxy for viable cell number.

Compound `CC1(C(=O)N2CCC(n3cc(CNc4cccc5c4C(=O)N(C4CCC(=O)NC4=O)C5=O)cn3)CC2)CC1(Cl)Cl` (stereo in doubt) [Compound 182, 4-(((1-(1-((R)-2,2-Dichloro-1-methylcyclopropane-1-carbonyl)piperidin-4-yl)-1H-pyrazol-4-yl)methyl)amino)-2-(2,6-dioxopiperidin-3-yl)isoindoline-1,3-dione] returned a GI50 of under 100 nM.
The compound `CC1(C(=O)N2CCC(n3cc(CNc4cccc5c4C(=O)N(C4CCC(=O)NC4=O)C5=O)cn3)CC2)CC1(Cl)Cl` (stereo not shown) [Compound 87, 4-(((1-(1-(2,2-dichloro-1-methylcyclopropane-1-carbonyl)piperidin-4-yl)-1H-pyrazol-4-yl)methyl)amino)-2-(2,6-dioxopiperidin-3-yl)isoindoline-1,3-dione] came in with a GI50 of under 1 nM.
Turning to `O=C1CCC(N2C(=O)c3cccc(NCc4cnn(C5CCN(C(=O)Cc6ccc7c(c6Cl)OCCCO7)CC5)c4)c3C2=O)C(=O)N1` (stereo not shown) [Compound 124, 4-(((1-(1-(2-(6-chloro-3,4-dihydro-2H-benzo[b][1,4]dioxepin-7-yl)acetyl)piperidin-4-yl)-1H-pyrazol-4-yl)methyl)amino)-2-(2,6-dioxopiperidin-3-yl)isoindoline-1,3-dione], the GI50 was under 100 nM.
`CC(Nc1cccc2c1C(=O)N(C1CCC(=O)NC1=O)C2=O)c1cnn(C2CCN(C(=O)OC(C)(C)C)CC2)c1` (stereo not shown) [Compound 174, tert-Butyl 4-(4-(1-((2-(2,6-dioxopiperidin-3-yl)-1,3-dioxoisoindolin-4-yl)amino)ethyl)-1H-pyrazol-1-yl)piperidine-1-carboxylate] showed a GI50 of under 100 nM.
As for `O=C1CCC(N2C(=O)c3cccc(NCc4cnn(C5CCN(C(=O)OCC(F)(F)F)CC5)c4)c3C2=O)C(=O)N1` (stereo not shown) [Compound 165, 4-(4-{[2-(2,6-Dioxo-piperidin-3-yl)-1,3-dioxo-2,3-dihydro-1H-isoindol-4-ylamino]-methyl}-pyrazol-1-yl)-piperidine-1-carboxylic acid 2,2,2-trifluoro-ethyl ester], the GI50 was under 100 nM.
Consider `CC1(C(=O)N2CCC(n3cc(CNc4cccc5c4C(=O)N(C4CCC(=O)NC4=O)C5=O)cn3)CC2)COC1` (stereo not shown) [Compound 61, 2-(2,6-dioxopiperidin-3-yl)-4-(((1-(1-(3-methyloxetane-3-carbonyl)piperidin-4-yl)-1H-pyrazol-4-yl)methyl)amino)isoindoline-1,3-dione], for which the concentration for 50% growth inhibition (GI50) is under 100 nM.
`Cc1ccc(N2CCC(C(=O)N3CCC(n4cc(CNc5cccc6c5C(=O)N(C5CCC(=O)NC5=O)C6=O)cn4)CC3)CC2)nc1` (stereo not shown) [Compound 118, 2-(2,6-dioxopiperidin-3-yl)-4-(((1-(1-(1-(5-methylpyridin-2-yl)piperidine-4-carbonyl)piperidin-4-yl)-1H-pyrazol-4-yl)methyl)amino)isoindoline-1,3-dione] returned a GI50 of under 1 nM.
The same measure for `O=C1CCC(N2C(=O)c3cccc(NCc4cnn(C5CCN(C(=O)C6CCN(C(=O)c7ccccc7)CC6)CC5)c4)c3C2=O)C(=O)N1` (stereo not shown) [Compound 101, 4-(((1-(1-(1-benzoylpiperidine-4-carbonyl)piperidin-4-yl)-1H-pyrazol-4-yl)methyl)amino)-2-(2,6-dioxopiperidin-3-yl)isoindoline-1,3-dione]: under 100 nM; for `O=C1CCC(N2C(=O)c3cccc(NCc4cnn(C5CCN(C(=O)C6(C(F)(F)F)CC6)CC5)c4)c3C2=O)C(=O)N1` (stereo not shown) [Compound 60, 2-(2,6-dioxopiperidin-3-yl)-4-(((1-(1-(1-(trifluoromethyl)cyclopropane-1-carbonyl)piperidin-4-yl)-1H-pyrazol-4-yl)methyl)amino)isoindoline-1,3-dione]: under 100 nM.
The compound `O=C1CCC(N2C(=O)c3cccc(NCc4cnn(C5CCN(C(=O)C6CC6)CC5)c4)c3C2=O)C(=O)N1` (stereo not shown) [Compound 24, 4-(((1-(1-(cyclopropanecarbonyl)piperidin-4-yl)-1H-pyrazol-4-yl)methyl)amino)-2-(2,6-dioxopiperidin-3-yl)isoindoline-1,3-dione] displayed a GI50 of under 100 nM.
The compound `CC(C)(C)OC(=O)N1CC2(CC(n3cc(CNc4cccc5c4C(=O)N(C4CCC(=O)NC4=O)C5=O)cn3)C2)C1` (stereo not shown) [Compound 167, tert-Butyl 6-(4-(((2-(2,6-dioxopiperidin-3-yl)-1,3-dioxoisoindolin-4-yl)amino)methyl)-1H-pyrazol-1-yl)-2-azaspiro[3.3]heptane-2-carboxylate] showed a GI50 of under 100 nM.
`O=C1CCC(N2C(=O)c3cccc(NCc4cnn(C5CCN(C(=O)C6CCC6)CC5)c4)c3C2=O)C(=O)N1` (stereo not shown) [Compound 14, 4-(((1-(1-(cyclobutanecarbonyl)piperidin-4-yl)-1H-pyrazol-4-yl)methyl)amino)-2-(2,6-dioxopiperidin-3-yl)isoindoline-1,3-dione] yielded a GI50 of under 100 nM.
For `CC(=O)NCC1CCC(C(=O)N2CCC(n3cc(CNc4cccc5c4C(=O)N(C4CCC(=O)NC4=O)C5=O)cn3)CC2)CC1` (stereo not shown) [Compound 99, N-((4-(4-(4-(((2-(2,6-dioxopiperidin-3-yl)-1,3-dioxoisoindolin-4-yl)amino)methyl)-1H-pyrazol-1-yl)piperidine-1-carbonyl)cyclohexyl)methyl)acetamide], the GI50 was under 100 nM.
The same measure for `CN1CCC(C)(C(=O)N2CCC(n3cc(CNc4cccc5c4C(=O)N(C4CCC(=O)NC4=O)C5=O)cn3)CC2)CC1` (stereo not shown) [Compound 55, 4-(((1-(1-(1,4-dimethylpiperidine-4-carbonyl)piperidin-4-yl)-1H-pyrazol-4-yl)methyl)amino)-2-(2,6-dioxopiperidin-3-yl)isoindoline-1,3-dione]: under 100 nM.
For the compound `[2H][C@@]1(N2C(=O)c3cccc(NCc4cnn(C5CCN(C(=O)OC(C)(C)C)CC5)c4)c3C2=O)CCC(=O)NC1=O` (single isomer, unassigned) [Compound 185], the GI50 is under 100 nM.
`CC(C)(C(=O)N1CCC(n2cc(CNc3cccc4c3C(=O)N(C3CCC(=O)NC3=O)C4=O)cn2)CC1)C(F)(F)F` (stereo not shown) [Compound 73, 2-(2,6-dioxopiperidin-3-yl)-4-(((1-(1-(3,3,3-trifluoro-2,2-dimethylpropanoyl)piperidin-4-yl)-1H-pyrazol-4-yl)methyl)amino)isoindoline-1,3-dione] had a GI50 of under 100 nM.
Turning to `O=C1CCC(N2C(=O)c3cccc(NCc4cnn(C5CCN(C(=O)CC6CCN(C(=O)c7ccccc7)CC6)CC5)c4)c3C2=O)C(=O)N1` (stereo not shown) [Compound 123, 4-(((1-(1-(2-(1-benzoylpiperidin-4-yl)acetyl)piperidin-4-yl)-1H-pyrazol-4-yl)methyl)amino)-2-(2,6-dioxopiperidin-3-yl)isoindoline-1,3-dione], the GI50 is under 100 nM.
In the case of `CC1(C(=O)N2CCC(C)(n3cc(CNc4cccc5c4C(=O)N(C4CCC(=O)NC4=O)C5=O)cn3)CC2)CCC1` (stereo not shown) [Compound 173, 2-(2,6-Dioxopiperidin-3-yl)-4-(((1-(4-methyl-1-(1-methylcyclobutane-1-carbonyl)piperidin-4-yl)-1H-pyrazol-4-yl)methyl)amino)isoindoline-1,3-dione], the GI50 is under 100 nM.
`CC(C)Oc1cc(C2CC2)cc(-n2cc(CNc3cccc4c3C(=O)N(C3CCC(=O)NC3=O)C4=O)cn2)c1` (stereo not shown) [Compound 180, 4-{[1-(3-Cyclopropyl-5-isopropoxy-phenyl)-1H-pyrazol-4-ylmethyl]-amino}-2-(2,6-dioxo-piperidin-3-yl)-isoindole-1,3-dione] came in with a GI50 of under 100 nM.

Usually GI50 stands for the concentration that inhibits growth by half. High values mean lower sensitivity of the cells, low ones greater sensitivity of the cells.
